How the values were obtained:
[1] = tested on: mutant TRAAK channels; assay: Whole-cell voltage clamp of mutant TRAAK channels; assay type: cell-based, human; conditions: A35Q, E38T and V42Q mutants
From the text: (§1) cDNA of the human TREK-1, TREK-2 and TRAAK channels were subcloned into the pEGFPN1 expression vector (Invitrogen), respectively. Mutations were introduced into TREK-1 or TRAAK by PCR using the QuickChange XL sitedirected mutagenesis kit (Agilent Technologies) and were subsequently confirmed by DNA sequencing.
(§2) Chinese hamster ovary (CHO) cells were provided by the Cell Bank of Chinese Academy of Sciences (Shanghai, China). CHO cells were maintained in DMEM/F12 (Gibco) supplemented with 10% fetal bovine serum (Gibco) and 100 μg ml^−1 penicillin-streptomycin (Cellgro) in a humidified incubator at 37 °C (5% CO2). For electrophysiology experiments, cells plated in 35 mm tissue culture dishes (Corning Incorporated) were transiently transfected with the plasmids using PolyJet™ reagent (SignaGen) according to the manufacturer’s instructions. Primers used in this study are listed in Supplementary Table 4.
(§3) All electrophysiological recordings were obtained using patch-clamp recordings in two different configurations: (1) whole cell for macroscopic current dose–response curves; and (2) outside-out and inside-out for macroscopic currents recordings.
(§4) All patch-clamp recordings were conducted 36–96 h after transfection with an Axopatch-200B amplifier (Molecular Devices) at room temperature (23–25 °C). […]

[2] = tested on: T1, mutant TRAAK channels; assay: Whole-cell voltage clamp of mutant TRAAK channels; assay type: cell-based, human; conditions: 100 μM, L39W mutant
T1 construct: expressed in transfected cells; host or cells: CHO cells, transient transfection
From the text: as §1, §2, §3, §4

[3] = tested on: T2, TREK-1; assay: Outside-out and inside-out patch recordings of TREK-1; assay type: cell-based, human; conditions: +80 mV
T2 construct: expressed in transfected cells; host or cells: CHO cells, transient transfection
Protocol: as §3
(§5) All patch-clamp recordings were conducted 36–96 h after transfection with an Axopatch-200B amplifier (Molecular Devices) at room temperature (23–25 °C). The microelectrodes fashioned from 1.5 mm thin-walled borosilicate glass with filament were pulled from Flaming/Brown type micropipette puller (P-97; SUTTER INSTRUMENT) with the resistances of 3–7 MΩ (whole cell) or 7–15 MΩ (outside-out) when filled with a solution containing (in mM): 140 KCl, 2 MgCl2, 10 EGTA, 1 CaCl2, 10 HEPES (pH 7.3, adjusted with KOH). External solution contained (in mM): 150 NaCl, 5 KCl, 0.5 CaCl2, 1.2 MgCl2, 10 HEPES (pH 7.3, adjusted with NaOH). The current signals were filtered at 1 kHz and digitized at a 10 kHz sampling frequency by using DigiData 1440 A.
In the outside-out patch recordings and inside-out patch recordings, the inhibitor (10–30 μM TKDC) was applied via dish perfusion. The bath level was kept as low as possible to reduce noise. Currents were recorded at a pipette potential of + 80 mV. […]
mechanical force, lipids, or pH change)? A comprehensive survey would be nice, but even evaluating block +/- one activating stimulus would be a very useful piece of information to know for those interested in using this drug.
Response: We have tested the TKDC-induced inhibition of TREK-1 in addition to the mechanical force using outside-out patch. 10 μM TKDC was applied via dish perfusion. The bath level was kept as low as possible to reduce noise. Currents were recorded at a pipette potential of +80 mV. Mechanical stimulation (-7 mmHg) for patches was applied by suction for the outside-out configuration using a pressure monitor (PM 015D, World Precision Instruments) controlled by clampex 10.6 software. As […]
The main aim of this work is to reveal an allosteric ligand-binding site in the extracellular cap of K2P channels. […]

[4] = target: T3, TREK-2 (Homo sapiens, UniProt P57789); assay: Whole-cell voltage clamp of CHO cells expressing TREK-2; assay type: cell-based; conditions: mean ± s.e.m
T3 construct: expressed in transfected cells; host or cells: CHO cells, transient transfection
T3 sequence (P57789 1-538): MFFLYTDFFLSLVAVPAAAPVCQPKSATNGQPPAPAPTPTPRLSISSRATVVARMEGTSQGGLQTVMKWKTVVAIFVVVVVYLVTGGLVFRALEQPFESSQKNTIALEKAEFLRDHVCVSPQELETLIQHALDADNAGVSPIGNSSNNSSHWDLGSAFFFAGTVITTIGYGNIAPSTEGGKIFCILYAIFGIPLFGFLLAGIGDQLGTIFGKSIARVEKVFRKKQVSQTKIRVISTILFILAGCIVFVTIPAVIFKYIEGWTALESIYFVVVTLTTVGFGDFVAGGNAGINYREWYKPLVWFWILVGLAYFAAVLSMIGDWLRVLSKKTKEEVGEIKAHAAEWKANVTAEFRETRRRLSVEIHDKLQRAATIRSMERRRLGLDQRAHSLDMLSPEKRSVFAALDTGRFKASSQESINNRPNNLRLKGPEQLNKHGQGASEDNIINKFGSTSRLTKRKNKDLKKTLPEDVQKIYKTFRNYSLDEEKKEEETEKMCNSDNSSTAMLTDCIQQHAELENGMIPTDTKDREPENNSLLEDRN
From the text: as §1, §2, §3, §5
Data of whole-cell voltage clamp experiments were fitted using doseResp function. The half inhibition concentrations were derived from fits of the dose–response curves to the function:1 I/I0=A1+A2-A1/1+10^logx0-xP, where I 0 and I are current amplitudes before and after application of inhibitors; A 1 and A 2 are constants between 0 and 1; x is the concentration of inhibitor; x o is the concentration when 50% inhibition was reached (IC50), P is the Hill constant.

SMILES: CS(=O)(=O)N(CC(=O)N1CCc2ccccc2C1)c1ccc(Cl)cc1 [TKDC, N-(4-cholorphenyl)-N-(2-(3,4-dihydrosioquinolin-2(1H)-yl)-2-oxoethyl)methanesulfonamide]
- TKDC-induced inhibition of mutant TRAAK versus WT [1]: enhanced inhibition
- inhibitory effect on L39W TRAAK mutant versus wild type [2]: weaker than the TKDC-induced
- inhibition of TREK-1, outside-out recording ([3]; application to the extracellular face, 10 and 30 μM): consistently inhibited TREK-1
- inhibition of TREK-1, inside-out recording ([3]; application to the intracellular side, 10 and 30 μM): did not significantly inhibit TREK-1 activity
- effect on activation of TREK-1 by mechanical force ([3]; outside-out patch, 10 μM, -7 mmHg): suppressed the activation of TREK-1 by mechanical force
- IC50 [4]: 5.2 ± 1.9 µM

Reference: PMC5575254, “An allosteric ligand-binding site in the extracellular cap of K2P channels” (Nature Communications, 2017)
